Reference: patent US4194006A, “Therapeutic application of acetyl-d,l-carnitine and other acyl derivatives of d,l-carnitine” (priority 1977, dated 1980)
Where two headings read alike, the source gives them in different places.

Columns and labels:
[1] = system: isolated rat atrium; test: antiarrhythmic effect, isolated rat atrium method of M. Libonati and G. Segre; conditions: Rattus norvegicus; for inhibition at 0.1 µg/mL / activation at 0.1 µg/mL: 1·10^-4 g/lt; for inhibition at 0.1 µg/mL / inhibition at 0.01 µg/mL / inhibition at 0.001 µg/mL: decrease; for activation at 0.1 µg/mL / activation at 0.01 µg/mL / activation at 0.001 µg/mL: increase; for inhibition at 0.01 µg/mL / activation at 0.01 µg/mL: 1·10^-5 g/lt; for inhibition at 0.001 µg/mL / activation at 0.001 µg/mL: 1·10^-6 g/lt
[2] = system: isolated rabbit hearts; test: coronary vasodilator effect: coronary flow, isolated heart (Langendorff)
Summary of the method: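 Langendorff-perfused isolated rabbit hearts in oxygenated Ringer at 38.2° C; anoxia imposed until contractile force fell by 80%, then reoxygenated with or without test compound. Coronary flow, isometric contraction and ECG recorded by polygraph.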

[3] = system: female rats; test: antifatigue effect: rota-rod; type: in vivo, rat; conditions: Rattus norvegicus, ip, 0.25 h, read-out: percentage of animals staying on the rota-rod more than 180 seconds; for responders at 300 mg/kg: 300 mg/kg i.p.; for responders at 400 mg/kg: 400 mg/kg i.p.; for responders at 600 mg/kg: 600 mg/kg i.p.
Summary of the method: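 Female rats dosed intraperitoneally in saline, with controls given saline alone. Every 15 min after treatment animals were placed on a 6 cm rod rotating at 16 r.p.m. Value is the percentage of animals staying on the rod for more than 180 s, per session.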

[4] = system: isolated rabbit hearts; test: cardiokinetic effect on isolated heart (Langendorff): contractile force after anoxia, positive inotropic effect; conditions: 10 minutes from interruption of anoxic period
Summary of the method: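 Rabbit hearts were perfused Langendorff-style with oxygenated Ringer at 38.2 °C. Anoxia was applied until contractile force dropped by 80%, then the hearts were reoxygenated with or without compound. Contractile force was expressed as a percentage 10 min after the anoxic period ended.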

[5] = system: mice; test: in vivo; conditions: LD50 intravenously in mice, compared with d,l-carnitine
Description: (§1) The tolerance of acetyl-d,l-carnitine and of the other aforementioned acyl derivatives of the formula (I), as well as their salts were investigated by comparing the LD50 obtained by administering the compounds intravenously in mice with the LD50 obtained under the same experimental conditions by intravenous injection of d,l-carnitine.

[6] = in vivo; conditions: mouse, in vivo, iv
Description: as §1

[7] = read-out: Mean percent variation versus controls: excitability (-%)
[8] = read-out: Mean percent variation versus controls: frequency max (-%)
[9] = read-out: Mean percent variation versus controls: refractory period (+%)
[10] = read-out: Mean percent variation versus controls: rheobase (+%)
[11] = session 6 (every 15 minutes), * p < 0.05

## CC(=O)CC(=O)OC(CC(=O)[O-])C[N+](C)(C)C (racemic) [acetoacetyl-d,l-carnitine]
[1]; [7]
  inhibition at 0.1 µg/mL: 40.1%
  inhibition at 0.01 µg/mL: 27.1%
  inhibition at 0.001 µg/mL: 12.2%
[1]; [8]
  inhibition at 0.1 µg/mL: 25.5%
  inhibition at 0.01 µg/mL: 22.7%
  inhibition at 0.001 µg/mL: 7.34%
[1]; [9]
  activation at 0.1 µg/mL: 22.8%
  activation at 0.01 µg/mL: 14.7%
  activation at 0.001 µg/mL: 10.7%
[1]; [10]
  activation at 0.1 µg/mL: 21.9%
  activation at 0.01 µg/mL: 9.94%
  activation at 0.001 µg/mL: 3.01%
[2]; 1·10^-5 g/lt
  Coronary flow, Mean ± S.E.: 89.82 ± 6.38%
[2]; 1·10^-6 g/lt
  Coronary flow, Mean ± S.E.: 74.65 ± 3.54%
[2]; 5·10^-6 g/lt
  Coronary flow, Mean ± S.E.: 75.70 ± 10.1%
[3]; session 1 (every 15 minutes)
  responders at 300 mg/kg: 0%
  responders at 400 mg/kg: 0%
  responders at 600 mg/kg: 0%
[3]; session 2 (every 15 minutes)
  responders at 300 mg/kg: 0%
  responders at 400 mg/kg: 0%
  responders at 600 mg/kg: 10%
[3]; session 4 (every 15 minutes)
  responders at 300 mg/kg: 10%
  responders at 400 mg/kg: 20%
  responders at 600 mg/kg: 40%
[3]; session 5 (every 15 minutes)
  responders at 300 mg/kg: 10%
  responders at 400 mg/kg: 20%
  responders at 600 mg/kg: 40%
[3]; session 6 (every 15 minutes)
  responders at 300 mg/kg: 10%
[3]; session 3 (every 15 minutes)
  responders at 400 mg/kg: 20%
  responders at 600 mg/kg: 20%
[3]; [11]
  responders at 400 mg/kg: 30%
  responders at 600 mg/kg: 40%
[4]; 1·10^-5 g/lt
  Contractile force, Mean ± S.E.: 58.3 ± 5.08%
[4]; 1·10^-6 g/lt
  Contractile force, Mean ± S.E.: 30.1 ± 3.98%
[4]; 5·10^-6 g/lt
  Contractile force, Mean ± S.E.: 38.2 ± 4.66%
[5]
  tolerance: better tolerance properties
[6]
  LD50: ~728 mg/kg
